Values of other authors in US8323685B2, “Methods of processing compositions containing microparticles” (Baxter International Inc., priority 2008, dated 2012).

System: rats
Details: oral, all at once (acute toxicity), minimal amount reported in the literature
For `CCC(C)=O` [2-butanone (MEK), 2-butanone], the LD50 is given as 2.7 g/kg body weight. For `CC(C)=O` [Acetone], the LD50 is given as 5.8 g/kg body weight. In the case of `COCCOC` [dimethoxyethane], the LD50 is given as 10 g/kg body weight. In the case of `CCOCC` [ether], the LD50 is listed as 1.2 g/kg body weight.

System: not given
Details: ambient temperature such as 20-25° C.
In the case of `CC(C)OC(C)C` [diisopropyl ether], the “Solubility (Sol) of water in the liquid” value is listed as 0.2 g/100 g. For `CCOCC` [ether], the “Solubility (Sol) of water in the liquid” value is given as 7.5 g/100 g.
